Patent publication US20250320215A1, “SALTS OF N-[4-(4-[[2-(DIMETHYLAMINO)ETHYL]AMINO]-3-METHYL-1H-PYRAZOLO[3,4-D]PYRIMIDIN-6-YL)-2-FLUOROPHENYL]-2,5-DIFLUOROBENZENESULFONAMIDE AND CRYSTALLINE FORMS THEREOF” (THRYV THERAPEUTICS INC, priority 2022, published 2025)
Converted amounts (≈) assume the structure as drawn. Read-outs that look alike come from different tables or passages of the source.

What was measured:
Assay type in all cases: physicochemical
[1] = Estimated solubility by solvent addition method via visual assessment; conditions: thermodynamic from solid, room temperature, read-out: Solubility
Description: Solubility of Compound 3 Form B was estimated in 30 solvents at room temperature and in 9 organic solvents at 70° C. using solvent addition method via visual assessment.
Protocol: about 3 mg of Compound 3 Form B was weighed into a sample vial and the solvent was added gradually with vortex until the drug solution was clear by observation or a total of 2 mL solvent was added. Then, the estimated solubility (mg/mL) was calculated.
Solubility of Compound 4, Form B was estimated in 18 solvents at room temperature using solvent addition method via visual assessment. About 3 mg of Compound 4, Form B was weighed into a sample vial and the solvent was added gradually with vortex until the solution was clear by observation or a total of 2 mL solvent was added. Then, the estimated solubility (mg/mL) was calculated.

[2] = Dynamic vapor sorption/desorption (DVS) with post-DVS XRPD
Description: Moisture sorption/desorption data were collected on a DVS Intrinsic. 7-20 mg of a sample was placed into a tared sample chamber and automatically weighed. The anhydrates were analyzed with the following setting parameters:
DVS experiments (FIGS. 17, 19, 21, 34, 35, 48 and 50) and XRPD post-DVS experiments (FIGS. 18, 20, 22, 36, 49 and 51) were conducted in order to study the deliquescence behaviour of the crystalline salts upon expose to humidity.

[3] = Solid stability testing (HPLC purity and XRPD)
Description: HPLC analysis were performed with an Agilent HPLC 1260 series instrument. HPLC method for stability testing is as follows:
Solid stability testing of Compound 3, Form D was evaluated at the conditions of 60° C. (capped) and 40° C./75% RH (open) for 7 days. Polymorphic form and purity were analyzed by XRPD and HPLC, respectively. […] (capped) and 40° C./75% RH (open) for 7 days.
Solid stability testing of Compound 4 Form B and Form D were evaluated at the conditions of 60° C. (vial close) and 40° C./75% RH (vial open) for 7 days. Polymorphic form and purity were checked by XRPD and HPLC, respectively.

[4] = Slurry study evaluated by XRPD
Description: About 20 mg of Compound 3, Form B was weighed into a sample vial and then 1 mL of solvent was added to make a suspension. The suspension was stirred at room temperature or 50° C. for 3 days and 11 days. Then, the wet solid was collected by filtration and analyzed by XRPD.
20-30 mg of Compound 4 Form B was added in 1 mL of selected solvents at room temperature or 50° C. The suspension was slurried at room temperature or 50° C. for 3 days and 11 days. The wet solids collected from filtration were examined by XRPD. There were four crystal forms obtained by slurrying, including di-mesylate Forms B, C and D as well as mono-mesylate Form G.

[5] = Thermal treatment (heat-cool cycle by DSC, XRPD of resulting solids); conditions: Heated to 130° C. at 10° C./min, and cooled to 25° C. at 5° C./min
Description: Compound 3, Form E was treated with heat-cool cycle by DSC. The resulted solids were characterized by XRPD. Compound 3, Form E, was converted to Compound 3, Form D after desolvation.
Compound 4 Form B was treated with heat-cool cycle by DSC. The resulted solids were checked by XRPD. […] The water was excluded at elevated temperature, then entered in the crystal lattice again at room temperature.
Compound 4 Form C and trace Form B was treated with heat-cool cycle by DSC. The resulted solids were checked by XRPD. The sample was converted to low crystalline (LC) Form B after heating to 175° C.
Compound 4 Form D was treated with heat-cool cycle by DSC. The resulted solids were checked by XRPD. The sample kept unchanged after heating to 140° C., but was converted to a new low crystalline form after heating to 210° C. which was assigned to Form F.

[6] = slurry in ACN/Water (9/1, v/v) at RT

solubility ([1]; organic solvent or mixture, 2-Me THF): < 1500 µg/mL | solubility ([1]; organic solvent or mixture, ACN): < 1500 µg/mL | solubility ([1]; organic solvent or mixture, ACN/Water (9/1, v/v)): 15000 to 20000 µg/mL (≈ 29.7 to 39.6 mM) | solubility ([1]; organic solvent or mixture, Acetone): < 1500 µg/mL | solubility ([1]; organic solvent or mixture, DCM): < 1500 µg/mL | solubility ([1]; organic solvent or mixture, DMA): 75000 to 150000 µg/mL (≈ 148 to 297 mM) | solubility ([1]; organic solvent or mixture, DMSO): > 150000 µg/mL | solubility ([1]; organic solvent or mixture, EA): < 1500 µg/mL | solubility ([1]; organic solvent or mixture, EtOH): 3750 to 7500 µg/mL (≈ 7.42 to 14.8 mM) | solubility ([1]; organic solvent or mixture, IPA): < 1500 µg/mL | solubility ([1]; organic solvent or mixture, IPAC): < 1500 µg/mL | solubility ([1]; organic solvent or mixture, MEK): < 1500 µg/mL | solubility ([1]; organic solvent or mixture, MTBE): < 1500 µg/mL | solubility ([1]; organic solvent or mixture, MeOH): 12000 to 20000 µg/mL (≈ 23.7 to 39.6 mM) | solubility ([1]; organic solvent or mixture, MeOH/Water (9/1, v/v)): 75000 to 150000 µg/mL (≈ 148 to 297 mM) | solubility ([1]; organic solvent or mixture, NMP): > 150000 µg/mL | solubility ([1]; organic solvent or mixture, THF): < 1500 µg/mL | solubility ([1]; Water): 75000 to 150000 µg/mL (≈ 148 to 297 mM) | Comments: hygroscopicity (DVS) [2]: Hygroscopic | hygroscopicity [2]: hygroscopic | Post-DVS XRPD ([2]; XRPD after DVS versus before): No change | wt % gain (DVS) ([2]; at 80% RH (25° C.)): 9.16 wt % | water uptake (DVS) ([2]; at 80% RH, 25° C.): 9.16% | Reversibility (DVS) ([2]; sorption/desorption): Reversible | Solid stability ([3]; 40° C./75% RH (open), day 7): partially converted to Form D | Solid stability ([3]; 60° C. (close), 7 days): chemically and physically stable | Purity, Initial T0 ([3]; HPLC, before storage): 99.47% | Purity - 7 days, 60° C. ([3]; HPLC, capped/closed vial, 7 days): 99.41% | Purity - 7 days, 40° C./75% RH ([3]; HPLC, open, 7 days): 99.18% | XRPD, Initial T0 ([3]; before storage): Form B | XRPD - 7 days, 60° C. ([3]; capped/closed vial, 7 days): Form B | XRPD Result Day 3/Wet ([4]; slurry in 2-Me THF at 50° C.): Form D | XRPD Result Day 11/Wet ([4]; slurry in 2-Me THF at 50° C.): Form D | XRPD Result Day 3/Wet ([4]; slurry in 2-Me THF at RT): Form D | XRPD Result Day 11/Wet ([4]; slurry in 2-Me THF at RT): Form D | XRPD Result Day 3/Wet ([4]; slurry in ACN at 50° C.): Form B | XRPD Result Day 11/Wet ([4]; slurry in ACN at 50° C.): Form B | XRPD Result Day 3/Wet ([4]; slurry in ACN at RT): Form B | XRPD Result Day 11/Wet ([4]; slurry in ACN at RT): Form B | XRPD Result Day 3/Wet [4, 6]: Form D | XRPD Result Day 11/Wet [4, 6]: Form D | XRPD Result Day 3/Wet ([4]; slurry in Acetone at 50° C.): Form C | XRPD Result Day 11/Wet ([4]; slurry in Acetone at 50° C.): Form D | XRPD Result Day 11/Wet ([4]; slurry in Acetone at RT): Form D | XRPD Result Day 3/Wet ([4]; slurry in DCM at 50° C.): Form B | XRPD Result Day 3/Wet ([4]; slurry in DCM at RT): Form D | XRPD Result Day 11/Wet ([4]; slurry in DCM at RT): Form D | XRPD Result Day 3/Wet ([4]; slurry in EA at 50° C.): Form D | XRPD Result Day 11/Wet ([4]; slurry in EA at 50° C.): Form D | XRPD Result Day 11/Wet ([4]; slurry in EA at RT): Form D | XRPD Result Day 3/Wet ([4]; slurry in EtOH at RT): Form D | XRPD Result Day 11/Wet ([4]; slurry in EtOH at RT): Form D | XRPD Result Day 3/Wet ([4]; slurry in IPA at 50° C.): Form D | XRPD Result Day 11/Wet ([4]; slurry in IPA at 50° C.): Form D | XRPD Result Day 3/Wet ([4]; slurry in IPA at RT): Form D | XRPD Result Day 11/Wet ([4]; slurry in IPA at RT): Form D | XRPD Result Day 3/Wet ([4]; slurry in IPAC at 50° C.): Form D | XRPD Result Day 11/Wet ([4]; slurry in IPAC at 50° C.): Form D | XRPD Result Day 3/Wet ([4]; slurry in IPAC at RT): Form D | XRPD Result Day 11/Wet ([4]; slurry in IPAC at RT): Form D | XRPD Result Day 3/Wet ([4]; slurry in MEK at 50° C.): Form D | XRPD Result Day 11/Wet ([4]; slurry in MEK at 50° C.): Form D | XRPD Result Day 3/Wet ([4]; slurry in MEK at RT): Form D | XRPD Result Day 11/Wet ([4]; slurry in MEK at RT): Form D | XRPD Result Day 3/Wet ([4]; slurry in MTBE at 50° C.): Form D | XRPD Result Day 11/Wet ([4]; slurry in MTBE at RT): Form D | XRPD Result Day 3/Wet ([4]; slurry in MeOH at RT): Form B | XRPD Result Day 11/Wet ([4]; slurry in MeOH at RT): Form B | XRPD Result Day 3/Wet ([4]; slurry in THF at 50° C.): Form C | XRPD Result Day 3/Wet ([4]; slurry in THF at RT): Form C | XRPD Result Day 11/Wet ([4]; slurry in THF at RT): Form D | XRPD Result ([4]; slurry in Water at RT or 50° C. for 3 days): Mono-mesylate Form G was obtained. | XRPD Resulting Form [5]: Form B
SMILES: Cc1n[nH]c2nc(-c3ccc(NS(=O)(=O)c4cc(F)ccc4F)c(F)c3)nc(NCCN(C)C)c12 [Compound 4 Form B]
